Assay results as given in PubChem BioAssay (NCI).
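Assay format: 96-well plates, 48-hour exposure. TGI marks complete inhibition of growth.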

Assays:
Test in all cases: NCI-60 cell line screen, 48 h
MCF7 breast = system: MCF7 breast
U251 CNS = system: U251 CNS
UACC-257 melanoma = system: UACC-257 melanoma
T-47D breast = system: T-47D breast
BT-549 breast = system: BT-549 breast
RPMI-8226 leukemia = system: RPMI-8226 leukemia
MDA-MB-435 = system: MDA-MB-435
HCT-15 colon = system: HCT-15 colon
HT29 colon = system: HT29 colon
HS 578T breast = system: HS 578T breast
CCRF-CEM leukemia = system: CCRF-CEM leukemia
MDA-MB-231 breast = system: MDA-MB-231 breast
M14 melanoma = system: M14 melanoma
NCI-H460 lung = system: NCI-H460 lung
SR leukemia = system: SR leukemia
ACHN renal = system: ACHN renal
K-562 leukemia = system: K-562 leukemia
SN12C renal = system: SN12C renal
MDA-N = system: MDA-N
SW-620 colon = system: SW-620 colon
OVCAR-5 ovarian = system: OVCAR-5 ovarian
NCI-H23 lung = system: NCI-H23 lung
COLO 205 colon = system: COLO 205 colon
SK-OV-3 ovarian = system: SK-OV-3 ovarian
CAKI-1 renal = system: CAKI-1 renal
HCC-2998 colon = system: HCC-2998 colon
SNB-19 CNS = system: SNB-19 CNS
HOP-62 NSCLC = system: HOP-62 NSCLC
KM12 colon = system: KM12 colon
TK-10 renal = system: TK-10 renal
SF-295 CNS = system: SF-295 CNS
A498 renal = system: A498 renal
SF-268 CNS = system: SF-268 CNS
A549 NSCLC = system: A549 NSCLC
NCI/ADR-RES ovarian = system: NCI/ADR-RES ovarian
HCT-116 colon = system: HCT-116 colon
OVCAR-8 ovarian = system: OVCAR-8 ovarian
DU-145 prostate = system: DU-145 prostate
NCI-H522 lung = system: NCI-H522 lung
786-0 renal = system: 786-0 renal
OVCAR-4 ovarian = system: OVCAR-4 ovarian
HOP-92 NSCLC = system: HOP-92 NSCLC
UACC-62 melanoma = system: UACC-62 melanoma
EKVX NSCLC = system: EKVX NSCLC
SK-MEL-28 melanoma = system: SK-MEL-28 melanoma
RXF 393 renal = system: RXF 393 renal
UO-31 renal = system: UO-31 renal
MOLT-4 leukemia = system: MOLT-4 leukemia
SK-MEL-2 melanoma = system: SK-MEL-2 melanoma
SF-539 CNS = system: SF-539 CNS

`CCN(CC)CCNC(=O)c1cc2cc(NC(=O)c3cc4cc(N)ccc4[nH]3)ccc2[nH]1` was tested, and the TGI (MCF7 breast) was 36.8 µM, the TGI (U251 CNS) was > 100 µM and the TGI (UACC-257 melanoma) was > 100 µM. For the same molecule, the TGI (T-47D breast) was > 100 µM, the TGI (BT-549 breast) was > 100 µM and the TGI (RPMI-8226 leukemia) was 74.5 µM. For the same molecule, the TGI (MDA-MB-435) was 58 µM, the TGI (HCT-15 colon) was > 100 µM and the TGI (HT29 colon) was > 100 µM. The TGI (HS 578T breast) was > 100 µM, the TGI (CCRF-CEM leukemia) was 38.9 µM and the TGI (MDA-MB-231 breast) was 73.4 µM. For the same molecule, the TGI (M14 melanoma) was 77.1 µM, the TGI (NCI-H460 lung) was > 100 µM and the TGI (SR leukemia) was 55 µM. For the same molecule, the TGI (ACHN renal) was > 100 µM, the TGI (K-562 leukemia) was > 100 µM and the TGI (SN12C renal) was > 100 µM. The TGI (MDA-N) was > 100 µM, the TGI (SW-620 colon) was > 100 µM and the TGI (OVCAR-5 ovarian) was > 100 µM. For the same molecule, the TGI (NCI-H23 lung) was > 100 µM, the TGI (COLO 205 colon) was 25.6 µM and the TGI (SK-OV-3 ovarian) was > 100 µM. The TGI (CAKI-1 renal) was > 100 µM, the TGI (HCC-2998 colon) was 36.3 µM and the TGI (SNB-19 CNS) was > 100 µM. For the same molecule, the TGI (HOP-62 NSCLC) was > 100 µM, the TGI (KM12 colon) was 28 µM and the TGI (TK-10 renal) was > 100 µM. The TGI (SF-295 CNS) was > 100 µM, the TGI (A498 renal) was > 100 µM and the TGI (SF-268 CNS) was > 100 µM. The TGI (A549 NSCLC) was > 100 µM, the TGI (NCI/ADR-RES ovarian) was > 100 µM and the TGI (HCT-116 colon) was 79.7 µM. The TGI (OVCAR-8 ovarian) was > 100 µM, the TGI (DU-145 prostate) was 47.1 µM and the TGI (NCI-H522 lung) was 46.7 µM. The TGI (786-0 renal) was > 100 µM, the TGI (OVCAR-4 ovarian) was 27.7 µM and the TGI (HOP-92 NSCLC) was > 100 µM. The TGI (UACC-62 melanoma) was 59.3 µM, the TGI (EKVX NSCLC) was > 100 µM and the TGI (SK-MEL-28 melanoma) was > 100 µM. The TGI (RXF 393 renal) was 61.3 µM, the TGI (UO-31 renal) was > 100 µM and the TGI (MOLT-4 leukemia) was 48.5 µM. The TGI (SK-MEL-2 melanoma) was > 100 µM and the TGI (SF-539 CNS) was 85.3 µM.
